The target of this assay is T1, Triticum aestivum (wheat) EPSP synthase DGT-7 variant DGT-7 v8 (T→I, P→S; TIPS) (Triticum aestivum, UniProt B5M6A1, P172S/T168I).
T1 construct: TIPS double mutant
T1 sequence (B5M6A1 with tags, fused parts or gaps T168I/P172S): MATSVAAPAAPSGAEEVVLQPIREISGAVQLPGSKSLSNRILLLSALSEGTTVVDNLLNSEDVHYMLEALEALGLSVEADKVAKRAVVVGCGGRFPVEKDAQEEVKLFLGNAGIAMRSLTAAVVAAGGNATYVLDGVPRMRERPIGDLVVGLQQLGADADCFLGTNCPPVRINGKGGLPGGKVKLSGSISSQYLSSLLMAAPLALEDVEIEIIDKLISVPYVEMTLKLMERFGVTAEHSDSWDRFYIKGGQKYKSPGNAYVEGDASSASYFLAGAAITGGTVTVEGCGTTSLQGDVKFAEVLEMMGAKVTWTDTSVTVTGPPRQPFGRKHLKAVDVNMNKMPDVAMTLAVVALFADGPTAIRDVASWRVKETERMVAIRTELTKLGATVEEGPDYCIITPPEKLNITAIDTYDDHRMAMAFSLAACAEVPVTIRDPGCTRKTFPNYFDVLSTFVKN
Description: In vitro kinetic assay (inorganic phosphate production, malachite green). Format: biochemical.

Each structure is given as a SMILES string. pIC50: −log10 of the molar value.

A word on the pIC50: it is the IC50 on a negative log10 scale, so that one unit is a factor of ten. Consider `O=C(O)CNCP(=O)(O)O` [glyphosate, N-(phosphonomethyl)glycine], for which the pIC50 by setting is: (IC50 (glyphosate), at 60 μM PEP) 2.44; (IC50 (glyphosate), at 1 mM PEP, values greater than 50 are estimates) less than 1.10; (tolerance to glyphosate, PEP concentration not given) 2.22 to 2.52.
In general, kcat/Km refers to the turnover number divided by the Michaelis constant. The term Km denotes the concentration of substrate that gives half-maximal velocity. `C=C(OP(=O)(O)O)C(=O)O` [PEP, phosphoenolpyruvate]: where the note is “PEP, pH 7.5, 1 mM S3P”, the specificity constant (kcat/Km) is 13600 M⁻¹ s⁻¹. In addition, for the setting “read-out: Km for PEP, pH 7.5, 1 mM S3P”, the Michaelis-Menten constant (Km) fell in the range of 60 to 200 µM.

Values taken from patent publication US9873883B2, “Glyphosate resistant plants and associated methods” (Dow AgroSciences LLC, priority 2012, dated 2018).
